Experimental data taken from US12558357B2, “Tetrahydroquinazoline derivatives as selective cytotoxic agents” (Merck Sharp & Dohme LLC, priority 2020, dated 2026).

Test system: PBMCs infected with VSV-G pseudotyped HIV virus (VSV-G/pNLG1-P2A-ΔEnv)
Test: cells
Assay type: cell-based, human
Conditions: Homo sapiens, PBMC, read-out: EC50 (HIV-TACK cell kill activity)

SMILES | EC50 [nM]
N#Cc1ncn(Cc2cc3c(cc2F)[C@@](C#CC2CC2)(C(F)(F)F)NC(=O)N3)c(=O)c1N [Example 69, (S)-5-amino-1-((4-(cyclopropylethynyl)-6-fluoro-2-oxo-4-(trifluoromethyl)-1,2,3,4-tetrahydroquinazolin-7-yl)methyl)-6-oxo-1,6-dihydropyrimidine-4-carbonitrile] | 29
O=c1ccncn1Cc1ccc2c(c1)NC(=S)N[C@]2(C#CC1CC1)C(F)(F)F [Example 70, (S)-3-((4-(cyclopropylethynyl)-2-thioxo-4-(trifluoromethyl)-1,2,3,4-tetrahydroquinazolin-7-yl)methyl)pyrimidin-4(3H)-one] | 93
Nc1nccn(Cc2ccc3c(c2)NC(=S)N[C@]3(C#CC2CC2)C(F)(F)F)c1=O [Example 71, (S)-3-amino-1-((4-(cyclopropylethynyl)-2-thioxo-4-(trifluoromethyl)-1,2,3,4-tetrahydroquinazolin-7-yl)methyl)pyrazin-2(1H)-one] | 41
Nc1c(C(F)(F)F)ccn(Cc2ccc3c(c2)NC(=O)N[C@]3(C#CC2CC2)C(F)(F)F)c1=O [Example 72, (S)-7-((3-amino-2-oxo-4-(trifluoromethyl)pyridin-1(2H)-yl)methyl)-4-(cyclopropylethynyl)-4-(trifluoromethyl)-3,4-dihydroquinazolin-2(1H)-one] | 193
CN1C(=O)Nc2cc(Cn3cnccc3=O)ccc2[C@@]1(C#CC1CC1)C(F)(F)F [Example 73, (S)-4-(cyclopropylethynyl)-3-methyl-7-((6-oxopyrimidin-1(6H)-yl)methyl)-4-(trifluoromethyl)-3,4-dihydroquinazolin-2(1H)-one] | 275
CCN1C(=O)Nc2cc(Cn3cnccc3=O)ccc2[C@@]1(C#CC1CC1)C(F)(F)F [Example 74, (S)-4-(cyclopropylethynyl)-3-ethyl-7-((6-oxopyrimidin-1(6H)-yl)methyl)-4-(trifluoromethyl)-3,4-dihydroquinazolin-2(1H)-one] | 263
Cc1cc2c(cc1Cn1cnccc1=O)NC(=O)N[C@]2(C#CC1CC1)C(F)(F)F [Example 80, (S)-4-(cyclopropylethynyl)-6-methyl-7-((6-oxopyrimidin-1(6H)-yl)methyl)-4-(trifluoromethyl)-3,4-dihydroquinazolin-2(1H)-one] | 57
CC(F)(F)c1ncn(Cc2ccc3c(c2)NC(=O)N[C@]3(C#CC2CC2)C(F)(F)F)c(=O)c1N [Example 81, (S)-7-((5-amino-4-(1,1-difluoroethyl)-6-oxopyrimidin-1(6H)-yl)methyl)-4-(cyclopropylethynyl)-4-(trifluoromethyl)-3,4-dihydroquinazolin-2(1H)-one] | 166
COc1ccc(=O)n(Cc2cc3c(cc2F)[C@@](C#CC2CC2)(C(C)(F)F)NC(=O)N3)n1 [Example 82, (S)-4-(cyclopropylethynyl)-4-(1,1-difluoroethyl)-6-fluoro-7-((3-methoxy-6-oxopyridazin-1(6H)-yl)methyl)-3,4-dihydroquinazolin-2(1H)-one] | 66
COc1cnn(Cc2cc3c(cc2F)[C@@](C#CC2CC2)(C(C)(F)F)NC(=O)N3)c(=O)c1 [Example 83, (S)-4-(cyclopropylethynyl)-4-(1,1-difluoroethyl)-6-fluoro-7-((4-methoxy-6-oxopyridazin-1(6H)-yl)methyl)-3,4-dihydroquinazolin-2(1H)-one] | 51
COc1ccn(Cc2cc3c(cc2F)[C@@](C#CC2CC2)(C(C)(F)F)NC(=O)N3)c(=O)c1 [Example 84, (S)-4-(cyclopropylethynyl)-4-(1,1-difluoroethyl)-6-fluoro-7-((4-methoxy-2-oxopyridin-1(2H)-yl)methyl)-3,4-dihydroquinazolin-2(1H)-one] | 30
Cc1cn(Cc2cc3c(cc2F)[C@@](C#CC2CC2)(C(C)(F)F)NC(=O)N3)c(=O)c(N)n1 [Example 85, (S)-7-((3-amino-5-methyl-2-oxopyrazin-1(2H)-yl)methyl)-4-(cyclopropylethynyl)-4-(1,1-difluoroethyl)-6-fluoro-3,4-dihydroquinazolin-2(1H)-one] | 14
